In brackets after ≈: the same amount, converted by molar mass. Activity calls are given as the source filed them. No cut-off for these calls is given here.
Tests used:
Assay type in all cases: functional
Enterococcus [1] = test: Antimicrobial activity against vancomycin-resistant Enterococcus 15A799 by broth microdilution method in presence of ZnSo4 in medium
Enterococcus [2] = test: Antimicrobial activity against vancomycin-susceptible Enterococcus 15A797 by broth microdilution method in presence of ZnSo4 in medium
Enterococcus [3] = test: Antimicrobial activity against vancomycin-susceptible Enterococcus 15A797 by broth microdilution method
Enterococcus [4] = test: Antimicrobial activity against vancomycin-resistant Enterococcus 15A799 by broth microdilution method

Row | SMILES | MIC (Enterococcus [1]) | MIC (Enterococcus [2]) | MIC (Enterococcus [3]) [µM] | MIC (Enterococcus [4])
1 | COC(=O)c1cc(OCCNC(=O)c2cc(OCc3cn(CCCNC(=O)CC[C@H](NC(=O)c4cc5cc(c4)CN(C(=O)[C@H](Cc4c[nH]cn4)NC(C)=O)CCCN(C(=O)[C@H](Cc4c[nH]cn4)NC(C)=O)CCCN(C(=O)[C@H](Cc4c[nH]cn4)NC(C)=O)C5)C(N)=O)nn3)cc(OCc3cn(CCCNC(=O)CC[C@H](NC(=O)c4cc5cc(c4)CN(C(=O)[C@H](Cc4c[nH]cn4)NC(C)=O)CCCN(C(=O)[C@H](Cc4c[nH]cn4)NC(C)=O)CCCN(C(=O)[C@H](Cc4c[nH]cn4)NC(C)=O)C5)C(N)=O)nn3)c2)cc(OCCNC(=O)c2cc(OCc3cn(CCCNC(=O)CC[C@@H](NC(=O)c4cc5cc(c4)CN(C(=O)[C@H](Cc4c[nH]cn4)NC(C)=O)CCCN(C(=O)[C@@H](Cc4c[nH]cn4)NC(C)=O)CCCN(C(=O)[C@H](Cc4c[nH]cn4)NC(C)=O)C5)C(N)=O)nn3)cc(OCc3cn(CCCNC(=O)CC[C@@H](NC(=O)c4cc5cc(c4)CN(C(=O)[C@H](Cc4c[nH]cn4)NC(C)=O)CCCN(C(=O)[C@@H](Cc4c[nH]cn4)NC(C)=O)CCCN(C(=O)[C@H](Cc4c[nH]cn4)NC(C)=O)C5)C(N)=O)nn3)c2)c1 | inactive | inactive |  | 
2 | C#CCCC(=O)NCCCOCCOCCOCCCNC(=O)[C@H]1NC(=O)[C@H]2NC(=O)[C@H](NC(=O)[C@@H]3NC(=O)[C@H](CC(N)=O)NC(=O)[C@H](NC(=O)[C@@H](CC(C)C)NC)[C@H](O)c4ccc(c(Cl)c4)Oc4cc3cc(c4O[C@@H]3O[C@H](CO)[C@@H](O)[C@H](O)[C@H]3O[C@H]3C[C@](C)(N)[C@H](O)[C@H](C)O3)Oc3ccc(cc3Cl)[C@H]2O)c2ccc(O)c(c2)-c2c(O)cc(O)cc21 |  |  | 1 (≈ 1.73 µg/mL) | inactive
3 | C#CCOc1cc(OCC#C)cc(C(=O)NCCOc2cc(OCCNC(=O)c3cc(OCC#C)cc(OCC#C)c3)cc(C(=O)NCCCOCCOCCOCCCNC(=O)[C@H]3NC(=O)[C@H]4NC(=O)[C@H](NC(=O)[C@@H]5NC(=O)[C@H](CC(N)=O)NC(=O)[C@H](NC(=O)[C@@H](CC(C)C)NC)[C@H](O)c6ccc(c(Cl)c6)Oc6cc5cc(c6O[C@@H]5O[C@H](CO)[C@@H](O)[C@H](O)[C@H]5O[C@H]5C[C@](C)(N)[C@H](O)[C@H](C)O5)Oc5ccc(cc5Cl)[C@H]4O)c4ccc(O)c(c4)-c4c(O)cc(O)cc43)c2)c1 |  |  | 1.6 (≈ 3.68 µg/mL) | 3.2 µM (≈ 7.35 µg/mL)
4 | CC(=O)N[C@@H](Cc1c[nH]cn1)C(=O)N1CCCN(C(=O)[C@H](Cc2c[nH]cn2)NC(C)=O)Cc2cc(cc(C(=O)N[C@@H](CCC(=O)NCCCN=[N+]=[N-])C(N)=O)c2)CN(C(=O)[C@@H](Cc2c[nH]cn2)NC(C)=O)CCC1 | inactive | inactive |  | 
5 | CN[C@H](CC(C)C)C(=O)N[C@H]1C(=O)N[C@@H](CC(N)=O)C(=O)N[C@H]2C(=O)N[C@H]3C(=O)N[C@H](C(=O)N[C@H](C(=O)NCCCOCCOCCOCCCNC(=O)CCc4cn(CCCNC(=O)CC[C@H](NC(=O)c5cc6cc(c5)CN(C(=O)[C@@H](Cc5c[nH]cn5)NC(C)=O)CCCN(C(=O)[C@H](Cc5c[nH]cn5)NC(C)=O)CCCN(C(=O)[C@H](Cc5c[nH]cn5)NC(C)=O)C6)C(N)=O)nn4)c4cc(O)cc(O)c4-c4cc3ccc4O)[C@H](O)c3ccc(c(Cl)c3)Oc3cc2cc(c3O[C@@H]2O[C@H](CO)[C@@H](O)[C@H](O)[C@H]2O[C@H]2C[C@](C)(N)[C@H](O)[C@H](C)O2)Oc2ccc(cc2Cl)[C@H]1O | 92.8 µM | 2.9 µM | 5.8 (≈ 16 µg/mL) | inactive
6 | CN[C@H](CC(C)C)C(=O)N[C@H]1C(=O)N[C@@H](CC(N)=O)C(=O)N[C@H]2C(=O)N[C@H]3C(=O)N[C@H](C(=O)N[C@H](C(=O)O)c4cc(O)cc(O)c4-c4cc3ccc4O)[C@H](O)c3ccc(c(Cl)c3)Oc3cc2cc(c3O[C@@H]2O[C@H](CO)[C@@H](O)[C@H](O)[C@H]2O[C@H]2C[C@](C)(N)[C@H](O)[C@H](C)O2)Oc2ccc(cc2Cl)[C@H]1O [VANCOMYCIN] |  |  | 0.3 (≈ 0.435 µg/mL) | 86 µM (≈ 125 µg/mL)
7 | CN[C@H](CC(C)C)C(=O)N[C@H]1C(=O)N[C@@H](CC(N)=O)C(=O)N[C@H]2C(=O)N[C@H]3C(=O)N[C@H](C(=O)N[C@H](C(=O)NCCCOCCOCCOCCNC(=O)c4cc(OCCNC(=O)c5cc(OCc6cn(CCCNC(=O)CC[C@H](NC(=O)c7cc8cc(c7)CN(C(=O)[C@@H](Cc7c[nH]cn7)NC(C)=O)CCCN(C(=O)[C@H](Cc7c[nH]cn7)NC(C)=O)CCCN(C(=O)[C@H](Cc7c[nH]cn7)NC(C)=O)C8)C(N)=O)nn6)cc(OCc6cn(CCCNC(=O)CC[C@H](NC(=O)c7cc8cc(c7)CN(C(=O)[C@@H](Cc7c[nH]cn7)NC(C)=O)CCCN(C(=O)[C@H](Cc7c[nH]cn7)NC(C)=O)CCCN(C(=O)[C@H](Cc7c[nH]cn7)NC(C)=O)C8)C(N)=O)nn6)c5)cc(OCCNC(=O)c5cc(OCc6cn(CCCNC(=O)CC[C@H](NC(=O)c7cc8cc(c7)CN(C(=O)[C@@H](Cc7c[nH]cn7)NC(C)=O)CCCN(C(=O)[C@H](Cc7c[nH]cn7)NC(C)=O)CCCN(C(=O)[C@H](Cc7c[nH]cn7)NC(C)=O)C8)C(N)=O)nn6)cc(OCc6cn(CCCNC(=O)CC[C@H](NC(=O)c7cc8cc(c7)CN(C(=O)[C@@H](Cc7c[nH]cn7)NC(C)=O)CCCN(C(=O)[C@H](Cc7c[nH]cn7)NC(C)=O)CCCN(C(=O)[C@H](Cc7c[nH]cn7)NC(C)=O)C8)C(N)=O)nn6)c5)c4)c4cc(O)cc(O)c4-c4cc3ccc4O)[C@H](O)c3ccc(c(Cl)c3)Oc3cc2cc(c3O[C@@H]2O[C@H](CO)[C@@H](O)[C@H](O)[C@H]2O[C@H]2C[C@](C)(N)[C@H](O)[C@H](C)O2)Oc2ccc(cc2Cl)[C@H]1O | inactive | 5 µM | 40 (≈ 255 µg/mL) | inactive
